Data taken from patent US8778966B2, “Quinolinone derivatives as PARP and tank inhibitors” (Janssen Pharmaceutica, NV, priority 2007, dated 2014).

What follows are compounds tested on HCT116 cells (assay: Mitotic arrest assay on HCT116 cells (phospho-histone H3 Ser10)). Conditions: Homo sapiens, HCT-116, HCT116 cells; lowest active dose; read-out: Mitotic arrest HCT116 LAD (converted).
Type: cell-based, human
Procedure, shortened: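 Read-out is imaging of phospho-histone H3 Ser10 (Alexa Fluor 488) with Hoechst nuclear counting, after 6 h compound exposure at 37 °C, DMSO ≤0.1%. LAD is the lowest dose at which the blank-corrected value over SD exceeds 5; triplicates, low-count wells excluded.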
In the case of CCc1cc2ccc(C(C)(C#N)Cc3cccc(-c4cnn(C)c4)c3)cc2[nH]c1=O (centres unmarked) [Compound 17], the minimal effective concentration is reported as 1 µM. CCc1cc2ccc(C(C)(C#N)Cc3cccc(-c4ccccc4)c3)cc2[nH]c1=O (centres unmarked) [Compound 18] showed a minimal effective concentration of 0.316 µM. In the case of CCc1cc2ccc(C(C)(C#N)Cc3cccc(I)c3)cc2[nH]c1=O (centres unmarked) [Compound 19], the minimal effective concentration is reported as 0.1 µM. Compound CCc1cc2ccc(C(C)(C#N)Cc3cccc(N(C)C)c3)cc2[nH]c1=O (centres unmarked) [Compound 20] has a minimal effective concentration of 0.1 µM. Work on CCc1cc2ccc(C(C)(C#N)Cc3cccc(N4CCOCC4)c3)cc2[nH]c1=O (centres unmarked) [Compound 21] yielded a minimal effective concentration of 0.316 µM. Compound CCc1cc2ccc(C(C)(C#N)Cc3cccc(O)c3)cc2[nH]c1=O (centres unmarked) [Compound 22] has a minimal effective concentration of 3.16 µM. Compound CCc1cc2ccc(C(C)(C#N)Cc3cccc(OCc4ccccc4)c3)cc2[nH]c1=O (centres unmarked) [Compound 23] has a minimal effective concentration of 1 µM. With CCc1cc2ccc(C(C)(C#N)Cc3cccc(OCCOC)c3)cc2[nH]c1=O (centres unmarked) [Compound 24] the minimal effective concentration was 1 µM.
